Each block holds one molecule with its values, some of them ahead of it.
Columns and labels:
[1] = Mixing time until clear solution / until TSPP is dissolved
Description: With US sourced raw materials, deionized water and sorbitol were combined. TSPP was added and fully dissolved. Zinc chloride was then added.
With US sourced raw materials, deionized water and sorbitol were combined. TSPP and zinc chloride were then simultaneously added and fully dissolved.
With Montreal sourced raw materials, deionized water and sorbitol were combined. Zinc chloride, TSPP, DSPP, and saccharin were then simultaneously added and mixed.
Charged deionized water, sorbitol, and saccharin were mixed until dissolved. A 50% zinc chloride solution was added and mixed. […] TSPP was added and mixed. […] Charged DSPP was added. […] The mix time to get the TSPP into solution was 28 minutes.
A 50% zinc chloride solution was prepared. Water and sorbitol were added to the main mix tank followed by saccharin. Saccharin was allowed to fully dissolve before adding the zinc chloride premix. […] TSPP was then added and it took 70 minutes to fully dissolve.
Mix times for TSPP to go into solution were 30 minutes (25 KG) & 23 minutes (150 KG).

[2] = Visual observation of precipitate formation / clarity while making the oral rinse composition; format: physicochemical
Description: A pilot trial was conducted to determine how sorbitol was affecting precipitate. A deionized water/sorbitol solution was made up and added to an empty chamber. […] A second trial was done with sorbitol as a rinse first, and then water was added.

SMILES: O=P([O-])([O-])OP(=O)([O-])[O-].[Na+].[Na+].[Na+].[Na+] [TSPP, tetrasodium pyrophosphate]
- mix time to get the TSPP into solution ([1]; full pilot batch (150 KG), 50% zinc chloride solution): 28 min
- time for TSPP to fully dissolve ([1]; full scale batch (800 KG), TSPP added after 50% zinc chloride premix): 70 min
- dissolution time of TSPP ([1]; full scale batch (8000 KG), 62% zinc chloride solution, TSPP powder sifted through a screen): about 30 minutes
- mix time for TSPP to go into solution ([1]; pilot trial 25 KG, 62% zinc chloride solution): 30 min
- mix time for TSPP to go into solution ([1]; pilot trial 150 KG, 62% zinc chloride solution): 23 min
- mixing time until solution clear after TSPP addition ([1]; pilot trial, TSPP added after 50% zinc chloride solution): 50 min

- precipitate on rinsing the container ([2]; sorbitol as a rinse first, then water added): No precipitate formed
SMILES: OC[C@@H](O)[C@@H](O)[C@H](O)[C@@H](O)CO [sorbitol]
- precipitate on rinsing the container ([2]; deionized water/sorbitol solution added to empty chamber): No precipitate formed, but solution was slightly cloudy
